Source: ChEMBL document CHEMBL1135149, “Syntheses of depsipeptide analogues of the insect neuropeptide proctolin” (2002)
Non-standard residues stand in square brackets, D forms with d. Residues, ends and D or L forms follow the SMILES beside them. *: point of attachment. Hpla = O=C(O)[C@@H](O)Cc1ccc(O)cc1; Hica(2S) = CC(C)C[C@H](O)C(=O)O; X1 = C[C@@H](O)[C@H](O*)C(=O)O

Test system: Locusta migratoria
Assay: Myotropic effect was assessed in vitro, using an isometric muscle contraction bioassay employing isolated hindguts from the locust Locusta migratoria at 1 uM/L
Assay type: functional, Muscle tissue

CC(C)C[C@H](NC(=O)[C@H](Cc1ccc(O)cc1)NC(=O)[C@@H](N)CCCN=C(N)N)C(=O)N1CCC[C@H]1C(=O)O[C@H](C(=O)O)[C@@H](C)O.O=C(O)C(F)(F)F.O=C(O)C(F)(F)F.O=C(O)C(F)(F)F (H-RYLP-X1) was tested. Which Isometric contraction did it give?
Its Isometric contraction is 106%.

How did the Isometric contraction turn out when CC(C)C[C@H](OC(=O)[C@H](Cc1ccc(O)cc1)NC(=O)[C@@H](N)CCCN=C(N)N)C(=O)N1CCC[C@H]1C(=O)N[C@H](C(=O)O)[C@@H](C)O.O=C(O)C(F)(F)F.O=C(O)C(F)(F)F.O=C(O)C(F)(F)F (H-RY[Hica(2S)]PT-OH) was run?
The Isometric contraction was 30%.

How did the Isometric contraction turn out when H-RYLPT-OH [PROCTOLIN] was run?
The Isometric contraction was 100%.

With CC(C)C[C@H](NC(=O)[C@H](Cc1ccc(O)cc1)OC(=O)[C@@H](N)CCCN=C(N)N)C(=O)N1CCC[C@H]1C(=O)N[C@H](C(=O)O)[C@@H](C)O.O=C(O)C(F)(F)F.O=C(O)C(F)(F)F.O=C(O)C(F)(F)F (H-R[Hpla]LPT-OH) as the compound, how does the Isometric contraction read?
Its Isometric contraction is 66%.

With CC(C)C[C@H](OC(=O)[C@H](Cc1ccc(O)cc1)NC(=O)[C@@H](N)CCCN=C(N)N)C(=O)N1CCC[C@H]1C(=O)O[C@H](C(=O)O)[C@@H](C)O.O=C(O)C(F)(F)F.O=C(O)C(F)(F)F.O=C(O)C(F)(F)F (H-RY[Hica(2S)]P-X1) as the compound, how does the Isometric contraction read?
The Isometric contraction was 27%.
